{"source": "EPA's ToxValDB 9.5 (doi:10.2903/j.efsa.2014.3744)", "key": {"Apis mellifera": {"system": "Apis mellifera", "settings": "acute, duration: 48 hours, mortality"}, "Canidae": {"system": "Canidae", "settings": "chronic; duration: 1 years; oral; Dog Other; clinical chemistry"}, "Daphnia magna": {"system": "Daphnia magna", "settings": "chronic/long-term; duration: 21 days; reproduction"}, "Oncorhynchus mykiss": {"system": "Oncorhynchus mykiss", "settings": "chronic/long-term; duration: 96 days; growth"}, "Tagia sp.": {"system": "Tagia sp.", "settings": "acute; duration: 14 days; mortality"}}}
{"smiles": "CC1(C(=O)Nc2ccc(O)c(Cl)c2Cl)CCCCC1", "note": "[Fenhexamid]", "values": [{"measurement": "LD50", "setting": "Apis mellifera; dermal", "value": "> 200", "unit": "µg/piece"}, {"measurement": "LD50", "setting": "Apis mellifera; oral, unspecified", "value": "> 102", "unit": "µg/piece"}, {"measurement": "NOAEL", "setting": "Canidae", "value": 19.2, "unit": "mg/kg-day"}, {"measurement": "LC50", "setting": "Colinus virginianus; acute, oral, diet, mortality", "value": "> 804", "unit": "mg/kg-day"}, {"measurement": "LD50", "setting": "Colinus virginianus; acute, oral, mortality", "value": "> 2000", "unit": "mg/kg-day"}, {"measurement": "NOEC", "setting": "Colinus virginianus; reproduction developmental", "value": 154, "unit": "mg/kg-day"}, {"measurement": "NOEC", "setting": "Daphnia magna", "value": 1.03, "unit": "mg/L"}, {"measurement": "NOEC", "setting": "Oncorhynchus mykiss", "value": 0.101, "unit": "mg/L"}, {"measurement": "LD50", "setting": "Rattus norvegicus; acute, oral, mortality", "value": "> 5000", "unit": "mg/kg-day"}, {"measurement": "NOAEL", "setting": "Rattus norvegicus; reproduction developmental", "value": 40.2, "unit": "mg/kg-day"}, {"measurement": "LC50", "setting": "Tagia sp.", "value": "≥ 1000", "unit": "mg/kg"}]}
